# In paper PMC6968685 (Journal of Enzyme Inhibition and Medicinal Chemistry, 2020):
# Structures can show the parent of a compound that is named as a salt.
row,melting point,SMILES
1,222 to 224 °C,"COc1ccc2c(-c3ccc(CNCCCCN4CCN(C)CC4)cc3)nc(-c3ccc(CNCCCCN4CCN(C)CC4)cc3)nc2c1 (as salt: (cooh)2) [Compound 3p, 7-Methoxy-2,4-bis{4-[(4–(4-methylpiperazin-1-yl)butyl)aminomethyl]phenyl}quinazoline]"
2,186 to 188 °C,"c1cc(CNCCCN2CCOCC2)cc(-c2nc(-c3cccc(CNCCCN4CCOCC4)c3)c3ccccc3n2)c1 (as salt: (cooh)2) [Compound 3u, 2,4-Bis{3-[(3-morpholinopropyl)aminomethyl]phenyl}quinazoline]"
3,229 to 231 °C,"CN1CCN(CCCNCc2ccc(-c3nc(-c4ccc(CNCCCN5CCN(C)CC5)cc4)c4ccccc4n3)cc2)CC1 (as salt: (cooh)2) [Compound 3e, 2,4-Bis{4-[(3–(4-methylpiperazin-1-yl)propyl)aminomethyl]phenyl}quinazoline]"
4,195 to 197 °C,"COc1ccc2cc(-c3ccc(CNCCCN4CCN(C)CC4)cc3)nc(-c3ccc(CNCCCN4CCN(C)CC4)cc3)c2c1 (as salt: (cooh)2) [Compound 2h, 7-Methoxy-1,3-bis{4-[(3–(4-methylpiperazin-1-yl)propyl)aminomethyl]phenyl}isoquinoline]"
5,235 to 237 °C,"COc1ccc2nc(-c3ccc(CNCCCCN4CCN(C)CC4)cc3)cc(-c3ccc(CNCCCCN4CCN(C)CC4)cc3)c2c1 (as salt: (cooh)2) [Compound 1k, 6-Methoxy-2,4-bis{4-[(4–(4-methylpiperazin-1-yl)butyl)aminomethyl]phenyl}quinoline]"
6,245 to 247 °C,"COc1ccc2c(-c3ccc(CNCCCN4CCN(C)CC4)cc3)cc(-c3ccc(CNCCCN4CCN(C)CC4)cc3)nc2c1 (as salt: (cooh)2) [Compound 1p, 7-Methoxy-2,4-bis{4-[(3–(4-methylpiperazin-1-yl)propyl)aminomethyl]phenyl}quinoline]"
7,> 260 °C,"CN(C)CCCNCc1cccc(-c2nc(-c3cccc(CNCCCN(C)C)c3)c3ccccc3n2)c1 (as salt: (cooh)2) [Compound 3s, 2,4-Bis{3-[(3-dimethylaminopropyl)aminomethyl]phenyl}quinazoline]"
8,237 to 239 °C,"COc1ccc2c(-c3ccc(CNCCCCN4CCN(C)CC4)cc3)cc(-c3ccc(CNCCCCN4CCN(C)CC4)cc3)nc2c1 (as salt: (cooh)2) [Compound 1o, 7-Methoxy-2,4-bis{4-[(4–(4-methylpiperazin-1-yl)butyl)aminomethyl]phenyl}quinoline]"
9,153 to 155 °C,"CN(C)CCCCNCc1ccc(-c2nc(-c3ccc(CNCCCCN(C)C)cc3)c3ccccc3n2)cc1 (as salt: (cooh)2) [Compound 3a, 2,4-Bis{4-[(4-dimethylaminobutyl)aminomethyl]phenyl}quinazoline]"
10,258 to 260 °C,"CN(C)CCCCNCc1ccc(-c2cc(-c3ccc(CNCCCCN(C)C)cc3)c3ccccc3n2)cc1 (as salt: (cooh)2) [Compound 1a, 2,4-Bis{4-[(4-dimethylaminobutyl)aminomethyl]phenyl}quinoline]"
11,237 to 239 °C,"COc1ccc2c(-c3ccc(CNCCCN(C)C)cc3)cc(-c3ccc(CNCCCN(C)C)cc3)nc2c1 (as salt: (cooh)2) [Compound 1n, 7-Methoxy-2,4-bis{4-[(3-dimethylaminopropyl)aminomethyl]phenyl}quinoline]"
12,208 to 210 °C,"COc1ccc2c(-c3ccc(CNCCCCN(C)C)cc3)cc(-c3ccc(CNCCCCN(C)C)cc3)nc2c1 (as salt: (cooh)2) [Compound 1m, 7-Methoxy-2,4-bis{4-[(4-dimethylaminobutyl)aminomethyl]phenyl}quinoline]"
13,223 to 225 °C,"COc1ccc2nc(-c3ccc(CNCCCN4CCN(C)CC4)cc3)cc(-c3ccc(CNCCCN4CCN(C)CC4)cc3)c2c1 (as salt: (cooh)2) [Compound 1l, 6-Methoxy-2,4-bis{4-[(3–(4-methylpiperazin-1-yl)propyl)aminomethyl]phenyl}quinoline]"
14,229 to 231 °C,"COc1ccc2c(-c3ccc(CNCCCN4CCN(C)CC4)cc3)nc(-c3ccc(CNCCCN4CCN(C)CC4)cc3)nc2c1 (as salt: (cooh)2) [Compound 3q, 7-Methoxy-2,4-bis{4-[(3–(4-methylpiperazin-1-yl)propyl)aminomethyl]phenyl}quinazoline]"
15,223 to 225 °C,"CN1CCN(CCCCNCc2ccc(-c3nc(-c4ccc(CNCCCCN5CCN(C)CC5)cc4)c4ccccc4n3)cc2)CC1 (as salt: (cooh)2) [Compound 3d, 2,4-Bis{4-[(4–(4-methylpiperazin-1-yl)butyl)aminomethyl]phenyl}quinazoline]"
16,235 to 237 °C,"c1ccc2c(-c3ccc(CNCCN4CCOCC4)cc3)cc(-c3ccc(CNCCN4CCOCC4)cc3)nc2c1 (as salt: (cooh)2) [Compound 1h, 2,4-Bis{4-[(2-morpholinoethyl)aminomethyl]phenyl}quinoline]"
17,225 to 227 °C,"CN1CCN(CCCCNCc2ccc(-c3cc(-c4ccc(CNCCCCN5CCN(C)CC5)cc4)c4ccccc4n3)cc2)CC1 (as salt: (cooh)2) [Compound 1d, 2,4-Bis{4-[(4–(4-methylpiperazin-1-yl)butyl)aminomethyl]phenyl}quinoline]"
18,203 to 205 °C,"CN(C)CCNCc1ccc(-c2nc(-c3ccc(CNCCN(C)C)cc3)c3ccccc3n2)cc1 (as salt: (cooh)2) [Compound 3c, 2,4-Bis{4-[(2-dimethylaminoethyl)aminomethyl]phenyl}quinazoline]"
19,227 to 229 °C,"COc1ccc2nc(-c3ccc(CNCCCN4CCN(C)CC4)cc3)nc(-c3ccc(CNCCCN4CCN(C)CC4)cc3)c2c1 (as salt: (cooh)2) [Compound 3k, 6-Methoxy-2,4-bis{4-[(3–(4-methylpiperazin-1-yl)propyl)aminomethyl]phenyl}quinazoline]"
20,227 to 229 °C,"COc1ccc2nc(-c3ccc(CNCCCCN(C)C)cc3)cc(-c3ccc(CNCCCCN(C)C)cc3)c2c1 (as salt: (cooh)2) [Compound 1i, 6-Methoxy-2,4-bis{4-[(4-dimethylaminobutyl)aminomethyl]phenyl}quinoline]"
21,226 to 228 °C,COc1ccc2c(-c3ccc(CNCCCN4CCN(C)CC4)cc3)nc(-c3ccc(CNCCCN4CCN(C)CC4)cc3)cc2c1 (as salt: (cooh)2) [Compound 2l]
22,217 to 219 °C,"CN1CCN(CCCNCc2ccc(-c3cc4ccccc4c(-c4ccc(CNCCCN5CCN(C)CC5)cc4)n3)cc2)CC1 (as salt: (cooh)2) [Compound 2d, 1,3-Bis{4-[(3–(4-methylpiperazin-1-yl)propyl)aminomethyl]phenyl}isoquinoline]"

row,SMILES,melting point
1,"c1cc(CNCCN2CCOCC2)cc(-c2nc(-c3cccc(CNCCN4CCOCC4)c3)c3ccccc3n2)c1 (as salt: (cooh)2) [Compound 3v, 2,4-Bis{3-[(2-morpholinoethyl)aminomethyl]phenyl}quinazoline]",234 to 236 °C
2,"COc1ccc2nc(-c3ccc(CNCCN(C)C)cc3)nc(-c3ccc(CNCCN(C)C)cc3)c2c1 (as salt: (cooh)2) [Compound 3j, 6-Methoxy-2,4-bis{4-[(2-dimethylaminoethyl)aminomethyl]phenyl}quinazoline]",233 to 235 °C
3,"c1cc(CNCCN2CCOCC2)cc(-c2cc(-c3cccc(CNCCN4CCOCC4)c3)c3ccccc3n2)c1 (as salt: (cooh)2) [Compound 1t, 2,4-Bis{3-[(2-morpholinoethyl)aminomethyl]phenyl}quinoline]",225 to 227 °C
4,"COc1ccc2c(-c3ccc(CNCCCCN(C)C)cc3)nc(-c3ccc(CNCCCCN(C)C)cc3)nc2c1 (as salt: (cooh)2) [Compound 3m, 7-Methoxy-2,4-bis{4-[(4-dimethylaminobutyl)aminomethyl]phenyl}quinazoline]",216 to 218 °C
5,"CN(C)CCNCc1ccc(-c2cc(-c3ccc(CNCCN(C)C)cc3)c3ccccc3n2)cc1 (as salt: (cooh)2) [Compound 1c, 2,4-Bis{4-[(2-dimethylaminoethyl)aminomethyl]phenyl}quinoline]",229 to 231 °C
6,"CN(C)CCCNCc1ccc(-c2cc3ccccc3c(-c3ccc(CNCCCN(C)C)cc3)n2)cc1 (as salt: (cooh)2) [Compound 2b, 1,3-Bis{4-[(3-dimethylaminopropyl)aminomethyl]phenyl}isoquinoline]",186 to 188 °C
7,"CN1CCN(CCCNCc2ccc(-c3cc(-c4ccc(CNCCCN5CCN(C)CC5)cc4)c4ccccc4n3)cc2)CC1 (as salt: (cooh)2) [Compound 1e, 2,4-Bis{4-[(3–(4-methylpiperazin-1-yl)propyl)aminomethyl]phenyl}quinoline]",249 to 251 °C
8,"COc1ccc2nc(-c3ccc(CNCCCN(C)C)cc3)nc(-c3ccc(CNCCCN(C)C)cc3)c2c1 (as salt: (cooh)2) [Compound 3i, 6-Methoxy-2,4-bis{4-[(3-dimethylaminopropyl)aminomethyl]phenyl}quinazoline]",243 to 245 °C
9,"COc1ccc2nc(-c3ccc(CNCCCCN(C)C)cc3)nc(-c3ccc(CNCCCCN(C)C)cc3)c2c1 (as salt: (cooh)2) [Compound 3h, 6-Methoxy-2,4-bis{4-[(4-dimethylaminobutyl)aminomethyl]phenyl}quinazoline]",156 to 158 °C
10,"c1ccc2c(-c3ccc(CNCCCN4CCOCC4)cc3)nc(-c3ccc(CNCCCN4CCOCC4)cc3)nc2c1 (as salt: (cooh)2) [Compound 3f, 2,4-Bis{4-[(3-morpholinopropyl)aminomethyl]phenyl}quinazoline]",183 to 185 °C
11,"CN1CCN(CCNCc2ccc(-c3cc(-c4ccc(CNCCN5CCN(C)CC5)cc4)c4ccccc4n3)cc2)CC1 (as salt: (cooh)2) [Compound 1f, 2,4-Bis{4-[(2–(4-methylpiperazin-1-yl)ethyl)aminomethyl]phenyl}quinoline]",240 to 242 °C
12,"COc1ccc2cc(-c3ccc(CNCCCCN(C)C)cc3)nc(-c3ccc(CNCCCCN(C)C)cc3)c2c1 (as salt: (cooh)2) [Compound 2e, 7-Methoxy-1,3-bis{4-[(4-dimethylaminobutyl)aminomethyl]phenyl}isoquinoline]",157 to 159 °C
